Legend:
[1] = system: S. epidermidis; assay: Biological activity against bacterial strains: S. epidermidis; type: cell-based, Staphylococcus epidermidis; conditions: strain ATCC12228
[2] = system: E. faecalis; assay: Biological activity against bacterial strains: E. faecalis; type: cell-based, Enterococcus faecalis; conditions: strain ATCC51575
[3] = system: S. pneumoniae; assay: Biological activity against bacterial strains: S. pneumoniae; type: cell-based, Streptococcus pneumoniae; parameters: Biological Activity, S. pneumoniae ATCC6301 / Biological Activity, S. pneumoniae ATCC700671 / Biological Activity, S. pneumoniae ATCC700676* / Biological Activity, S. pneumoniae ATCC700677* / Biological Activity, S. pneumoniae ATCC700905* / Biological Activity, S. pneumoniae ATCC700906* / Biological Activity, S. pneumoniae ATCC49619: unit not given here; conditions: for Biological Activity, S. pneumoniae ATCC6301: strain ATCC6301; for Biological Activity, S. pneumoniae ATCC49619: strain ATCC49619; for Biological Activity, S. pneumoniae ATCC700671: strain ATCC700671; for Biological Activity, S. pneumoniae ATCC700676*: strain ATCC700676, macrolide resistant strain; for Biological Activity, S. pneumoniae ATCC700677*: strain ATCC700677, macrolide resistant strain; for Biological Activity, S. pneumoniae ATCC700905*: strain ATCC700905, macrolide resistant strain; for Biological Activity, S. pneumoniae ATCC700906*: strain ATCC700906, macrolide resistant strain
[4] = system: a series of bacterial strains; assay: Biological activity against a series of bacterial strains (overall statements); type: cell-based
Description: Results for S. pneumoniae, S. aureus, S. epidermidis, and E. faecalis are provided in Table B. Data on activity against H. influenzae for selected compounds are presented in Table C.

[5] = system: S. aureus; assay: Biological activity against bacterial strains: S. aureus; type: cell-based, Staphylococcus aureus; parameters: unit not given here; conditions: for Biological Activity, S. aureus ATCC6538p: strain ATCC6538p; for Biological Activity, S. aureus ATCC14154*: strain ATCC14154, macrolide resistant strain; for Biological Activity, S. aureus ATCC29213: strain ATCC29213; for Biological Activity, S. aureus ATCC33591*: strain ATCC33591, macrolide resistant strain; for Biological Activity, S. aureus ATCCBAA-39*: strain ATCCBAA-39, macrolide resistant strain; for Biological Activity, S. aureus ATCCBAA-44*: strain ATCCBAA-44, macrolide resistant strain
[6] = system: Haemophilus Influenzae; assay: H. influenzae Activity; type: cell-based

Row | SMILES | Biological Activity, S. epidermidis ATCC12228 [1] | Biological Activity, E. faecalis ATCC51575 [2] | Biological Activity, S. pneumoniae ATCC6301 [3] | Biological Activity, S. pneumoniae ATCC49619 [3] | Biological Activity, S. pneumoniae ATCC700671 [3] | Biological Activity, S. pneumoniae ATCC700676* [3] | Biological Activity, S. pneumoniae ATCC700677* [3] | Biological Activity, S. pneumoniae ATCC700905* [3] | Biological Activity, S. pneumoniae ATCC700906* [3] | Biological Activity, S. aureus ATCC6538p [5] | Biological Activity, S. aureus ATCC14154* [5] | Biological Activity, S. aureus ATCC29213 [5] | Biological Activity, S. aureus ATCC33591* [5] | Biological Activity, S. aureus ATCCBAA-39* [5] | Biological Activity, S. aureus ATCCBAA-44* [5] | H. influenzae Activity, strain ATCC9006 [6] | H. influenzae Activity, strain ATCC49766 [6] | also measured
1 | CCC1OC(=O)CC(O)C(C)C(OC2OC(C)C(O)C(N(C)C)C2O)C(CC=O)CC(C)C(=NOCC#Cc2cnc3ccccc3c2)C=CC(C)=CC1CO (single isomer, unassigned) [Compound E] | 0.098 | >12.5 | 0.025 | 0.025 | 0.025 | 0.025 | >12.5 | 0.049 | >12.5 | 0.098 | 0.39 | 0.39 | >12.5 | >12.5 | >12.5 |  |  | activity of Z-configuration oxime versus its E counterpart (in words) [4]: more active than compound D
2 | CCC1OC(=O)CC(O)C(C)C(OC2OC(C)C(O)C(N(C)C)C2O)C(CCN2CC(C)CC(C)C2)CC(C)C(=O)C=CC(C)=CC1CO (stereo not shown) [Compound 8, 20-Deoxy(3,5-dimethyl-1-piperidine)OMT, reference compound] | 0.78 | >12.5 | 0.39 | 0.78 | 0.78 | 1.56 | >12.5 | 1.56 | >12.5 | 0.39 | 1.56 | 1.56 | >12.5 | >12.5 | >12.5 |  |  | antibiotic / antibacterial activity (in words) [4]: no antibiotic activity
3 | CCC1OC(=O)CC(O)C(C)C(OC2OC(C)C(O)C(N(C)C)C2O)C(CCN2CC(C)CC(C)C2)CC(C)C(=NO)C=CC(C)=CC1CO (stereo not shown) [Compound 9, 20-deoxy(3,5-dimethyl-1-piperidine)OMT 9-oxime, reference compound] |  |  |  |  |  |  |  |  |  |  |  |  |  |  |  |  |  | antibiotic / antibacterial activity (in words) [4]: no antibiotic activity
4 | CCC1OC(=O)CC(O)C(C)C(OC2OC(C)C(O)C(N(C)C)C2O)C(CC=O)CC(C)C(=NOCCCCOc2ccc3ncccc3c2)C=CC(C)=CC1COC(=O)NCc1ccccc1 (stereo not shown) [Compound EE] | 6.25 | >12.5 | 0.049 | 0.098 | 0.2 | 0.049 | 0.39 | 0.049 | >12.5 | 3.12 | 6.25 | 6.25 | >12.5 | >12.5 | >12.5 | 12.5 | >12.5 | 
5 | CCC1OC(=O)CC(O)C(C)C(OC2OC(C)C(O)C(N(C)C)C2O)C(CC=O)CC(C)C(=NOCC=Cc2cnc3ccccc3c2)C=CC(C)=CC1COC(=O)NCc1ccccc1 (stereo not shown) [Compound FF] | 3.12 | >12.5 | 0.2 | 0.2 | 0.2 | 0.049 | 0.2 | 0.098 | >12.5 | 1.56 | 6.25 | 3.12 | 12.5 | >12.5 | >12.5 | 12.5 | 12.5 | 
6 | CC[C@H]1OC(=O)C[C@@H](O)[C@H](C)[C@@H](OC2OC(C)C(O)C(N(C)C)C2O)[C@@H](CC=O)C[C@@H](C)C(=N\OCCOc2ccccc2)/C=C/C(C)=C/C1CO (stereo partly shown) [Compound IIb] | 0.78 | >12.5 | 0.025 | 0.20 | 0.20 | 0.025 | 1.56 | 0.20 | >12.5 | 0.39 | 1.56 | 1.56 | >12.5 | >12.5 | >12.5 |  |  | activity of Z-configuration oxime versus its E counterpart (in words) [4]: more active than compound Ia
7 | CCC1OC(=O)CC(O)C(C)C(OC2OC(C)C(O)C(N(C)C)C2O)C(CC=O)CC(C)C(=NOCCCCc2cnc3ccccc3c2)C=CC(C)=CC1CO (stereo not shown) [Compound J] | 0.20 | >12.5 | 0.025 | 0.049 | 0.025 | 0.025 | 0.025 | 0.025 | >12.5 | 0.025 | 0.20 | 0.20 | >12.5 | >12.5 | >12.5 | 6.25 | 6.25 | decrease in activity compared to OMT ([6]; strains ATCC9006 and ATCC49766): ~4 fold
8 | CC[C@H]1OC(=O)C[C@@H](O)[C@H](C)[C@@H](O[C@@H]2O[C@H](C)[C@@H](O)[C@H](N(C)C)[C@H]2O)[C@@H](CC=O)C[C@@H](C)C(=O)/C=C/C(C)=C/[C@@H]1CO [OMT, 5-O-mycaminosyltylonolide, reference compound] | 0.39 | >12.5 | 0.025 | 0.098 | 0.049 | 0.78 | 6.25 | 0.78 | >12.5 | 0.39 | 1.56 | 0.78 | >12.5 | >12.5 | >12.5 | 1.56 | 1.56 | H. influenzae Activity, strain EH001 ([6]; strain EH001): 3.12; H. influenzae Activity, strain EH002 ([6]; strain EH002): 6.25; H. influenzae Activity, strain EH003 ([6]; strain EH003): 1.56

Source: patent publication US7247617B2, “Sixteen-member macrolide antiinfective agents” (Kosan Biosciences Incorporated, priority 2004, dated 2007)
